US6750228B1, “Aromatic sulfone hydroxamic acid metalloprotease inhibitor” (priority 1997, dated 2004)
Read-outs that look alike come from different tables or passages of the source.

Experiments:
MMP-13 = biological target: T1, MMP-13 (Homo sapiens, UniProt P45452); test: biochemical
T1 construct: made in house; host or cells: baculovirus / insect cells
How it was run: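 Assay buffer 100 mM Tris-HCl, 100 mM NaCl, 10 mM CaCl2, pH 7.5. Activated MMP + inhibitor, 5 min RT; then methoxycoumarin peptide substrate, 4 μM final. Readout fluorescence; IC50 calculated.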

MMP-2 = biological target: T2, MMP-2 (Homo sapiens, UniProt P08253); test: biochemical
T2 construct: made in house; provided by Dr. Gregory Goldberg, Washington University
T2 sequence (P08253 110-660): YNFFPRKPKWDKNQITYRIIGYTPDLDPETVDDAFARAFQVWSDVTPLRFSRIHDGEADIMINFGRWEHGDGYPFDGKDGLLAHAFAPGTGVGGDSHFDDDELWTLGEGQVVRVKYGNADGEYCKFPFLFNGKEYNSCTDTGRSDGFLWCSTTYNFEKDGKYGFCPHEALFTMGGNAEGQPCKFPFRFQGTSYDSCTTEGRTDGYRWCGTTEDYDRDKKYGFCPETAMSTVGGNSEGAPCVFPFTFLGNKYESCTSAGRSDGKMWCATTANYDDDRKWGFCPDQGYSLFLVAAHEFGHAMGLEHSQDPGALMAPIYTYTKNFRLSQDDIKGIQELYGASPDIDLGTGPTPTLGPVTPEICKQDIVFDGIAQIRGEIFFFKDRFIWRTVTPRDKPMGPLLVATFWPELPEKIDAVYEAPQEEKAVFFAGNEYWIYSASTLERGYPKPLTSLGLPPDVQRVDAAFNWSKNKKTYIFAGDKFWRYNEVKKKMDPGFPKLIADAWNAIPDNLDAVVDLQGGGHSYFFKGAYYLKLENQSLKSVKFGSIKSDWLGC
How it was run: (§1)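 APMA- or trypsin-activated enzymes were preincubated with inhibitor for 5 min at room temperature, then the fluorogenic substrate MCA-Pro-Leu-Gly-Leu-Dpa-Ala-Arg-NH2 was added to a final 4 μM.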

MMP-1 = biological target: T3, MMP-1 (Homo sapiens, UniProt P03956); test: biochemical; conditions: read-out: MMP-1 IC50
T3 construct: made in house; host or cells: transfected HT-1080 cells (provided by Dr. Harold Welgus, Washington University)
T3 sequence (P03956 100-469): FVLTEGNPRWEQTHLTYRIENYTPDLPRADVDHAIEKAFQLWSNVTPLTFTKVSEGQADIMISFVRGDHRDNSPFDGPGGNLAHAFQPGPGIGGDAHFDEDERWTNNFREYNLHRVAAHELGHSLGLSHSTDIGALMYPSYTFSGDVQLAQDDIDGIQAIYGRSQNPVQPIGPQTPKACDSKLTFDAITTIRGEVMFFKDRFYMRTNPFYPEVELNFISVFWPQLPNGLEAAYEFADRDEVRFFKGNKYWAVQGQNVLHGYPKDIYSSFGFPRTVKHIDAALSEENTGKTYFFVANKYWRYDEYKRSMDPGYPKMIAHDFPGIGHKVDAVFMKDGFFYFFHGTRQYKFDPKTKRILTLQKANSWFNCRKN
How it was run: as §1

[1] = system: advanced, rapidly progressive, treatment-refractory solid tumor cancers; conditions: cited from earlier work
[2] = recombinant human MMP-13, MCA peptide substrate 4 μM, pH 7.5, room temperature, read-out: MMP-13 IC50
[3] = recombinant human MMP-2, MCA peptide substrate 4 μM, pH 7.5, room temperature, read-out: MMP-2 IC50
[4] = recombinant human MMP-1, MCA peptide substrate 4 μM, pH 7.5, room temperature

Row | Compound | IC50 (MMP-13; [2]) [nM] | IC50 (MMP-2; [3]) [nM] | IC50 (MMP-1; [4]) [nM] | IC50 (MMP-1) [nM] | IC50 (MMP-13; MMP-13 IC50 (nM)) [nM] | IC50 (MMP-2; MMP-2 IC50 (nM)) [nM] | most common drug-related toxicity ([1]; clinical trials in patients) | cancer-specific antigens used as surrogate markers for biological activity ([1]; patients with colorectal, pancreatic, ovarian, prostate cancers)
1 | O=C(NO)C1(S(=O)(=O)c2ccc([C@H]3CC[C@@H](c4ccccc4)CC3)cc2)CCOCC1 [Example 781] | 800 | 5100 | > 10000 | – | – | – | – | –
2 | O=C(NO)C1(S(=O)(=O)c2ccc([C@H]3CC[C@H](c4ccccc4)CC3)cc2)CCOCC1 [Example 782] | 21.1 | 100 | > 10000 | – | – | – | – | –
3 | CN(C)c1ccc(C(=O)C2CCN(c3ccc(S(=O)(=O)C4(C(=O)NO)CCOCC4)cc3)CC2)cc1 [Example 784] | 6 | 4500 | > 10000 | – | – | – | – | –
4 | C=Cc1cccc(C(=O)C2CCN(c3ccc(S(=O)(=O)C4(C(=O)NO)CCOCC4)cc3)CC2)c1 [Example 786] | 3.7 | 700 | > 10000 | – | – | – | – | –
5 | C=Cc1ccc(C(=O)C2CCN(c3ccc(S(=O)(=O)C4(C(=O)NO)CCOCC4)cc3)CC2)cc1 [Example 787] | 1.2 | 175 | > 10000 | – | – | – | – | –
6 | CC(C)c1ccc(C(=O)C2CCN(c3ccc(S(=O)(=O)C4(C(=O)NO)CCOCC4)cc3)CC2)cc1 [Example 788] | 3 | 445 | > 10000 | – | – | – | – | –
7 | CC(C)(C)c1ccc(C(=O)C2CCN(c3ccc(S(=O)(=O)C4(C(=O)NO)CCOCC4)cc3)CC2)cc1 [Example 789] | 12.2 | 3700 | – | > 10000 | – | – | – | –
8 | CN(C)c1cccc(C(=O)C2CCN(c3ccc(S(=O)(=O)C4(C(=O)NO)CCOCC4)cc3)CC2)c1 [Example 790] | 4.5 | 700 | > 10000 | – | – | – | – | –
9 | CCOc1ccc(C(=O)C2CCN(c3ccc(S(=O)(=O)C4(C(=O)NO)CCOCC4)cc3)CC2)cc1 [Example 791] | 2 | 700 | > 10000 | – | – | – | – | –
10 | CS(=O)(=O)N1CCC(C2CCN(c3ccc(S(=O)(=O)C4(C(=O)NO)CCOCC4)cc3)CC2)CC1 [Example 793] | 4 | 23.5 | > 10000 | – | – | – | – | –
11 | O=C(NO)C1(S(=O)(=O)c2ccc(OC3CN(C(c4ccccc4)c4ccccc4)C3)cc2)CCOCC1 [Example 794] | 1500 | 2900 | > 10000 | – | – | – | – | –
12 | O=C(c1ccc2c(c1)OCO2)C1CCN(c2ccc(S(=O)(=O)C3(C(=O)NO)CCOCC3)cc2)CC1 [Example 796] | 5.7 | 130 | > 10000 | – | – | – | – | –
13 | O=C(c1ccc2c(c1)OCCO2)C1CCN(c2ccc(S(=O)(=O)C3(C(=O)NO)CCOCC3)cc2)CC1 [Example 797] | 4 | 175 | – | > 10000 | – | – | – | –
14 | C=CCC(=O)C1CCN(c2ccc(S(=O)(=O)C3(C(=O)NO)CCOCC3)cc2)CC1 [Example 798] | 20 | 210 | > 10000 | – | – | – | – | –
15 | CCCC(=O)C1CCN(c2ccc(S(=O)(=O)C3(C(=O)NO)CCOCC3)cc2)CC1 [Example 799] | 10.6 | 43.5 | > 10000 | – | – | – | – | –
16 | CN1CCCN(C2CCN(c3ccc(S(=O)(=O)C4(C(=O)NO)CCOCC4)cc3)CC2)CC1 [Example 807] | 200 | 1400 | > 10000 | – | – | – | – | –
17 | COc1ccc(CCCOC2CCN(c3ccc(S(=O)(=O)C4(C(=O)NO)CCOCC4)cc3)CC2)cc1OC [Example 811] | 14.8 | 110 | > 10000 | – | – | – | – | –
18 | CS(=O)(=O)N1CCCN(C2CCN(c3ccc(S(=O)(=O)C4(C(=O)NO)CCOCC4)cc3)CC2)CC1 [Example 815] | 140 | 1400 | > 10000 | – | – | – | – | –
19 | O=C(NO)C1(S(=O)(=O)c2ccc(N3CCC(CC4CC4)CC3)cc2)CCOCC1 [Example 816] | 1200 | > 10000 | > 10000 | – | – | – | – | –

Row | Compound | IC50 (MMP-13; [2]) [nM] | IC50 (MMP-2; [3]) [nM] | IC50 (MMP-1; [4]) [nM] | IC50 (MMP-1) [nM] | IC50 (MMP-13; MMP-13 IC50 (nM)) [nM] | IC50 (MMP-2; MMP-2 IC50 (nM)) [nM] | most common drug-related toxicity ([1]; clinical trials in patients) | cancer-specific antigens used as surrogate markers for biological activity ([1]; patients with colorectal, pancreatic, ovarian, prostate cancers)
20 | CC1CCCC(S(=O)(=O)C2CCN(c3ccc(S(=O)(=O)C4(C(=O)NO)CCOCC4)cc3)CC2)C1 (centres unmarked) [Example 822] | 10 | 210 | > 10000 | – | – | – | – | –
21 | COc1ccc(C2CCN(c3ccc(S(=O)(=O)C4(C(=O)NO)CCOCC4)cc3)CC2)c(C)c1 [Example 823] | – | – | > 10000 | – | 7 | 505 | – | –
22 | O=C(NO)C1(S(=O)(=O)c2ccc(N3CCC(c4ccccc4O)CC3)cc2)CCOCC1 [Example 825] | 11.3 | – | – | > 10000 | – | 70 | – | –
23 | O=C(NO)C1(S(=O)(=O)c2ccc(N3CCC(C(O)c4ccccc4)CC3)cc2)CCOCC1 (centres unmarked) [Example 827] | 10 | 540 | > 10000 | – | – | – | – | –
24 | CCCCOc1cccc(S(=O)(=O)N2CC(Oc3ccc(S(=O)(=O)C4(C(=O)NO)CCOCC4)cc3)C2)c1 [Example 830] | 17.9 | 2100 | > 10000 | – | – | – | – | –
25 | CCc1cccc([C@@H](C)C2CCN(c3ccc(S(=O)(=O)C4(C(=O)NO)CCOCC4)cc3)CC2)c1 [Example 831] | 2.3 | 170 | > 10000 | – | – | – | – | –
26 | CN(C)S(=O)(=O)N(C)C1CCN(c2ccc(S(=O)(=O)C3(C(=O)NO)CCOCC3)cc2)CC1 [Example 832] | 18.1 | 2000 | > 10000 | – | – | – | – | –
27 | COc1ccc(C2CCN(c3ccc(S(=O)(=O)C4(C(=O)NO)CCOCC4)cc3)CC2)c(OC)c1 [Example 833] | 11 | 1750 | > 10000 | – | – | – | – | –
28 | O=C(NO)C1(S(=O)(=O)c2ccc(N3CCC(Oc4ccccc4O)CC3)cc2)CCOCC1 [Example 835] | 6 | 20 | > 10000 | – | – | – | – | –
29 | O=C(Cc1ccccc1)C1CCN(c2ccc(S(=O)(=O)C3(C(=O)NO)CCOCC3)cc2)CC1 [Example 838] | 3 | 70 | > 10000 | – | – | – | – | –
30 | O=C(NO)C1(S(=O)(=O)c2ccc(N3CCC(Nc4ccccc4O)CC3)cc2)CCOCC1 [Example 842] | 5.5 | 45.4 | > 10000 | – | – | – | – | –
31 | O=C(c1ccc2ccccc2c1)C1CCN(c2ccc(S(=O)(=O)C3(C(=O)NO)CCOCC3)cc2)CC1 [Example 844] | 5 | 4700 | – | > 10000 | – | – | – | –
32 | O=C(c1ccc(Cl)c(Cl)c1)C1CCN(c2ccc(S(=O)(=O)C3(C(=O)NO)CCOCC3)cc2)CC1 [Example 846] | 4.5 | 186 | > 10000 | – | – | – | – | –
33 | O=C(NO)C1(S(=O)(=O)c2ccc(OC3CN(S(=O)(=O)Cc4ccccc4)C3)cc2)CCOCC1 [Example 850] | 4.5 | 150 | > 10000 | – | – | – | – | –
34 | Cc1cc(C(=O)C2CCN(c3ccc(S(=O)(=O)C4(C(=O)NO)CCOCC4)cc3)CC2)ccc1Cl [Example 858] | 3.7 | 600 | > 10000 | – | – | – | – | –
35 | CCCc1ccc(C(=O)C2CCN(c3ccc(S(=O)(=O)C4(C(=O)NO)CCOCC4)cc3)CC2)cc1 [Example 860] | 2.7 | 1500 | > 10000 | – | – | – | – | –
36 | CNC(=O)[C@@H](NC(=O)[C@H](CC(C)C)[C@H](O)C(=O)NO)C(C)(C)C [marimastat, Marimastat] | – | – | – | – | – | – | musculoskeletal pain and stiffness | dose-related reduction in the rise of cancer-specific antigens
37 | Tetrahydro-4-[[4-(pentaflourooxy)phenyl]sulfonyl]-2H-thiopyran-4-carboxamide [Example 225] | 180 | 41.8 | > 10000 | – | – | – | – | –
38 | Tetrahydro-N-hydroxy-4-[[4-(pentaflourooxy)phenyl]sulfonyl]-2H-thiopyran-4-carboxamide [Example 224] | < 0.1 | < 0.1 | 4500 | – | – | – | – | –
